Inconclusive results are not listed. The source made the active and inactive calls. No rule for the calls is given here. Bounds are passed on as bounds.

A word on the EC50: it is the midpoint of the concentration-response curve.

The assay relates to C. albicans CaCi-8 + fluconazole, Alamar Blue growth, 48 h. The experiment in a line: resistant C. albicans growth inhibition with fluconazole, dose response, CaCi-8 strain, Alamar Blue fluorescence (AID 2423).
For the compound `Cc1ccc(C(=O)N/N=C/c2c(O)ccc3ccccc23)cn1`, the EC50 was 947 nM.
With `Clc1ccc(CONc2ncnc3nonc23)c(Cl)c1` the figure was 328 nM; with `COc1ccc(C(=O)NCCN2CCOCC2)c(OC)c1OC`, > 15000 nM (inactive); with `Cc1ccc([N+](=O)[O-])cc1-c1[nH]c(-c2ccc(O)c(O)c2)nc1-c1ccccc1`, > 15000 nM (inactive).
In the case of `c1ccc2c(c1)CCN(c1ncnc3c1[nH]c1ccccc13)C2`, the half-maximal effective concentration (EC50) was 558 nM.
For the compound `CN(C)S(=O)(=O)Oc1cccc(C(=O)Nc2ccc(Cl)c(Cl)c2)c1`, the concentration for a half-maximal effect (EC50) is 711 nM.
To `O=C(NC(=S)Nn1cnc2c(cnn2-c2ccccc2)c1=O)c1ccc(Cl)cc1` belongs 4150 nM.
To `COc1cccc(C(C(=O)NC2CCCC2)N(C(=O)c2ccco2)c2ccc(-n3cnnn3)c(C)c2)c1OC` (centres undefined) belongs > 15000 nM (inactive); to `Nc1[nH]n2c(=O)cc(-c3ccccc3)nc2c1N=Nc1ccc(S(N)(=O)=O)cc1`, 3060 nM; to `Cc1cc(C)nc(NS(=O)(=O)c2ccc(NC(=O)COc3ccccc3)cc2)n1`, > 15000 nM (inactive).
For the compound `CCOc1ccc2c(c1)C(C)=CC(C)(C)N2S(=O)(=O)c1ccc(C)cc1`, the EC50 is > 16000 nM (inactive).
For `CN1C(=O)/C(=C/c2cn(CC(=O)N3CCCCC3)c3ccccc23)NC1=S`, the EC50 is > 15000 nM (inactive).
Consider `CCOC(=O)CSc1ccc(C(=O)N2CCN(C)CC2)cc1[N+](=O)[O-]`, for which the EC50 was > 16000 nM (inactive).
`O=C(O)CCCCCN1C(=O)/C(=C\c2ccncc2)SC1=S`: the EC50 is 898 nM.
With `COc1ccccc1N1CCN(C(=O)c2cc3cc(Cl)ccc3[nH]2)CC1` the figure was > 15000 nM (inactive); with `CN(C)c1ccc(/C=C/C=C/c2sc3ccccc3[n+]2C)cc1`, 1740 nM; with `Brc1cccc(CSc2nnc(-c3ccncc3)o2)c1`, > 15000 nM (inactive).
On to `COc1ccc(NS(=O)(=O)c2ccc3ccccc3c2)c2ncccc12`, for which the EC50 is 3790 nM.
With `CCc1nnc(NC(=O)CSc2nnc(CNc3cccc(C)c3)n2-c2ccccc2)s1` the figure was > 15000 nM (inactive); with `N#C/C(=C\c1ccc(OC(=O)c2cccs2)cc1)c1nc2ccccc2[nH]1`, 3210 nM; with `O=C(N/N=C/c1ccncc1)c1cc2ccccc2cc1O`, > 15000 nM (inactive).
With `CCN(CC)c1ccc(/C=N/NC(=O)c2cccc(S(=O)(=O)N3CCOCC3)c2)c(O)c1` the figure was 513 nM; with `Cc1ccc(C)c(N=Nc2ccc(O)c3ncccc23)c1`, 716 nM; with `C/C(=N/NC(=O)c1ccccc1O)c1ccc(N2C(=O)C3CCCCC3C2=O)cc1` (centres undefined), > 16000 nM (inactive).
With `COc1ccc(-n2cccc2/C=C2\C(=N)N3N=C(C(C)C)SC3=NC2=O)cc1` the figure was 16300 nM; with `CO/N=C/c1ccc(N2CCN(C(=O)c3ccc(C)cc3)CC2)c([N+](=O)[O-])c1`, 2100 nM.
As for `NS(=O)(=O)c1cccc(NC(=S)NCc2ccc3c(c2)OCO3)c1`, the EC50 was > 16000 nM (inactive).
As to `Cc1nnc(NC(=O)CSc2ncnc3c2cnn3-c2ccccc2C)s1`, the EC50 is 446 nM.
To `CCCCN(CCCC)S(=O)(=O)c1ccc(C(=O)Nc2nnc(COC)o2)cc1` belongs > 15000 nM (inactive).
With `O=C(Nc1ccccc1)OCN1C(=O)c2ccccc2C1=O` the figure was > 15000 nM (inactive); with `O=C1C2CCCN2C(c2ccccc2)N1c1ccccn1` (centres undefined), > 16000 nM (inactive).
For the compound `COc1ccc(OC)c(/C=C2\SC(=S)N(NS(=O)(=O)c3ccc(C)cc3)C2=O)c1`, the concentration giving a half-maximal response (EC50) was 1130 nM.
With `Cc1ccc(Nc2cc(C)nn2-c2nc(C)cc(=O)[nH]2)cc1`, the EC50 is below 120 nM.
On to `CCCCOP(=O)(c1ccc(N(C)C)cc1)C(O)c1ccccc1F` (centres undefined), for which the EC50 is 4660 nM.
To `Cc1onc(-c2c(F)cccc2Cl)c1C(=O)NNC(=O)C1CCN(Cc2ccccc2)CC1` belongs > 15000 nM (inactive); to `CCOC(=O)c1c(NC(=O)C2Cc3ccccc3C(=O)O2)sc2c1CCCC2` (centres undefined), > 16000 nM (inactive); to `Cc1cccc(-n2nc(C(=O)c3ccco3)cc(-c3nc4ccccc4[nH]3)c2=N)c1`, 6090 nM.
To `CN(C)C(=O)c1cn(-c2ccccc2)nc1-c1cccs1` belongs > 16000 nM (inactive).
Take `Cc1ccc(-c2nnc(NC(=O)c3ccc([N+](=O)[O-])o3)o2)c(C)c1`: the EC50 was 2160 nM.
For `O=c1cc2oc3cc(O)c(O)cc3c(-c3ccccc3[N+](=O)[O-])c-2cc1O`, the 50% effective concentration (EC50) is 1520 nM.
Take `O=S(=O)(Cc1ccc(Cl)cc1)N1CCN(Cc2ccccc2)CC1`: the EC50 was > 16000 nM (inactive).
For `O=C(N/N=C/c1sc(N2CCOCC2)nc1-c1ccccc1)c1cccc(S(=O)(=O)N2CCOCC2)c1`, the concentration for a half-maximal effect (EC50) is 1150 nM.
For the compound `CC[n+]1c(/C=C/C=C/c2ccc(N(C)C)cc2)sc2ccccc21`, the EC50 is below 120 nM.
`CC(=O)Nc1ccc(Nc2c3ccccc3nc3ccccc23)cc1`: the concentration giving a half-maximal response (EC50) is 5980 nM.
With `NS(=O)(=O)c1ccc(N=Nc2ccc(O)c3ncccc23)cc1` the figure was 1380 nM; with `Cc1ccc(NC(=O)CSc2nnc([C@@H](N)Cc3c[nH]c4ccccc34)o2)c(C)c1`, > 15000 nM (inactive); with `N#Cc1c(-c2ccc(Cl)cc2)cc(-c2ccccc2)nc1SCC(=O)O`, 1200 nM.
As for `O=C(NNC(=S)Nc1ccc(Cl)c(Cl)c1)c1ccccn1`, the concentration for a half-maximal effect (EC50) is 1130 nM.
With `Cc1ccc(NC(=O)NNC(=O)c2cc3ccccc3cc2O)c(C)c1`, the EC50 was > 15000 nM (inactive).
With `Nc1cc(N)nc(SCc2cccc(F)c2)n1` the figure was > 15000 nM (inactive); with `Cc1cc(C)n(-c2nc(SCCN(C)C)c3c4c(sc3n2)CCCC4)n1`, 6430 nM; with `Cc1ccc(-n2[nH]c(C)c(/C=N/NC(=O)c3ccc([N+](=O)[O-])cc3)c2=O)c(C)c1`, 3530 nM.
With `Cc1ccc2cc(C3C(C#N)=C(N)Oc4c3ccc3cccnc43)c(=O)[nH]c2c1` (centres undefined) the figure was 1900 nM; with `COc1cccc(/C=N\NC(=O)c2ccc(Cn3cc(Br)c([N+](=O)[O-])n3)o2)c1O`, 5070 nM.
To `Cc1[nH]c2ccccc2c1C(=O)CCl` belongs 175 nM; to `[O-][N+]1=c2ccc(Nc3ccccc3)cc2=NC12CCCCC2`, 750 nM; to `O=[N+]([O-])c1cccc(-c2cc(-c3cc(Br)ccc3O)[nH]n2)c1`, 866 nM.
Consider `CCC(=O)N1CCN(c2ccc(Cl)cc2NC(=O)c2ccc3c(c2)OCCO3)CC1`, for which the EC50 was 811 nM.
With `O=C(Cc1ccccc1)Nc1nonc1NC(=O)c1ccccc1` the figure was 477 nM.
With `Cc1cc(/C=N/NC(N)=S)c(C)n1-c1cccc(Cl)c1`, the EC50 is 1650 nM.
With `C/C(=N\NC(=O)C1CCCC1)c1ccc(Cl)c(Cl)c1`, the EC50 is > 15000 nM (inactive).
To `CC(C)COCc1ccc(O)c2ncccc12` belongs 1470 nM.
Take `O=C(ONC1=NCCCCC1)c1cccc([N+](=O)[O-])c1`: the EC50 is 969 nM.
With `CCOc1cccc(-c2cc(-c3n[nH]c(=S)n3CC)c3ccccc3n2)c1` the figure was 4000 nM.
Turning to `CN1/C(=C\C(=O)C[n+]2ccc(C(=O)c3ccccc3)cc2)C(C)(C)c2ccccc21`, the EC50 is 4060 nM.
With `CCOc1cc(S(=O)(=O)NCc2ccccc2)c(OCC)cc1-n1cnnn1` the figure was > 15000 nM (inactive).
To `O=C(NNC(=O)c1cc2ccccc2cc1O)NC1CCCCC1` belongs 13600 nM.
To `O=C(O)CCCCCn1c(O)c(C=C2N=c3ccccc3=N2)sc1=S` belongs 1640 nM.
For `BrC(=C\c1ccccc1)/C=N/n1cnnc1`, the EC50 was 1570 nM.
As to `N/C(Cc1ccccc1)=N\OC(=O)c1cccc2ccccc12`, the EC50 is 1400 nM.
As to `O=C(Nc1cccc(-c2cn3c(n2)SCC3)c1)c1ccc(Br)o1`, the EC50 is 2710 nM.
To `O=[N+]([O-])c1ccc(O)c(Nc2ncnc3ccc(Br)cc23)c1` belongs 150 nM.
With `COc1ccc(NC(=O)/C(C#N)=C\c2ccc(N3CCOCC3)o2)cc1` the figure was 3760 nM; with `CCN(CC)C(=O)Cn1c(=O)n(-c2ccccc2)c(=O)c2c3c(sc21)CCC3`, > 16000 nM (inactive).
To `CCOC(=O)c1cnc2ccc(C)cc2c1Nc1ccc(N2CCOCC2)cc1` belongs 1100 nM; to `COc1ccc(C(=O)N/N=C(\Cc2ncc[nH]2)c2ccccc2)cc1`, > 16000 nM (inactive); to `O=C(NNC(=O)c1cc2ccccc2cc1O)c1cccs1`, > 15000 nM (inactive).
On to `CCCCNC(=O)/C(=C\c1ccc([N+](=O)[O-])o1)NC(=O)c1ccccc1`, for which the EC50 was > 15000 nM (inactive).
For the compound `Cc1cc(Sc2nc(N)ncc2[N+](=O)[O-])ncn1`, the concentration giving a half-maximal response (EC50) is 2150 nM.
In the case of `Nc1[nH]c(=O)ncc1F`, the 50% effective concentration (EC50) was 711 nM.
With `CCN1/C(=C/C=C/c2oc3ccc(-c4ccccc4)cc3[n+]2CC)Oc2ccc(-c3ccccc3)cc21`, the EC50 is 589 nM.
With `O=C(c1cc(COc2cccc(C(F)(F)F)c2)on1)N1CCC(c2ccncc2)CC1` the figure was 2540 nM; with `CCN(c1ccccc1)S(=O)(=O)c1ccc(Cl)c(NC(=O)CN2C(=O)NC3(CCCC3)C2=O)c1`, > 15000 nM (inactive).
With `O=[N+]([O-])c1ccc(O)c(/C=N/Nc2ccc(Cl)nn2)c1` the figure was 1800 nM; with `[O-][n+]1cccc2c(Br)cc(Br)c(O)c21`, 652 nM.
To `O=C(c1ccc(C(=O)N2CCCc3ccccc32)s1)N1CCCc2ccccc21` belongs 2990 nM; to `O=c1[nH]c(SCc2ccccc2F)nc2ccccc12`, 2120 nM; to `CC(C)(C)C(=O)NC(=S)NNC(=O)c1sc2ccccc2c1Cl`, 360 nM.
With `CC1(C)CC(N2CCN(Cc3ccccc3)CC2)=CC(=[N+]2CCCCC2)C1`, the EC50 is 3350 nM.
To `Fc1cccc2sc(Nc3nnc(-c4ccco4)o3)nc12` belongs > 15000 nM (inactive).
To `Cc1nc2c(=O)oc3ccccc3c2n1-c1ccccc1` belongs 2430 nM.
To `Cc1cccc(/C=C/C(=O)c2cc(Br)ccc(=O)c2O)c1` belongs 987 nM.
Take `CNC(=S)N/N=C/c1ccc(-c2ccc(Cl)c([N+](=O)[O-])c2)o1`: the EC50 was 1940 nM.
With `O=c1[nH]c(=S)[nH]nc1Cc1ccc(Cl)c(Cl)c1` the figure was 1400 nM.

Values taken from PubChem BioAssay AID2423 (Broad Institute, 2010).
